Results from patent US6528494B2 (priority 1996, dated 2003).
Structures can show the parent of a compound that is named as a salt.

How the values were obtained:
Format in all cases: cell-based
[1] = biological target: T1, adenosine 1 receptor (Homo sapiens, UniProt P30542); assay: Agonist activity against adenosine 1 receptor (CHO cells, forskolin-enhanced cAMP/SPAP reporter); conditions: CHO cells transfected with human receptor; forskolin-enhanced cAMP via SPAP; mean of all the versions tested
T1 sequence (P30542 1-326): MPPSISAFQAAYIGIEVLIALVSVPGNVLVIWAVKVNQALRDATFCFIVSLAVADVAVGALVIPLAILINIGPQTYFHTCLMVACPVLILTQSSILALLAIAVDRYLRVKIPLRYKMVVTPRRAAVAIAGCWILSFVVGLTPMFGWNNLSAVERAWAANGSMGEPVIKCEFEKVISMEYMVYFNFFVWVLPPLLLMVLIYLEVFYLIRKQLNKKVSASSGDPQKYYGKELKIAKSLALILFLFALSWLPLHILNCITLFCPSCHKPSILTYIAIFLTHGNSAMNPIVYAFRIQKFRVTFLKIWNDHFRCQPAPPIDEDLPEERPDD
Description: (§1) (1) Agonist activity against adenosine 2a, adenosine 1 and adenosine 3 receptor subtypes.
(§2) The effect of test compounds was determined by their effects on basal levels of cAMP (A2a) or on forskolin-enhanced cAMP (A1 and A3) as reflected by changes in levels of SPAP.

[2] = biological target: adenosine 2a receptor (Homo sapiens, UniProt P29274); assay: Agonist activity against adenosine 2a receptor (CHO cells, cAMP/SPAP reporter); conditions: CHO cells transfected with human receptor; basal cAMP via SPAP; mean of all the versions tested
Chain of adenosine 2a receptor (P29274 whole entry): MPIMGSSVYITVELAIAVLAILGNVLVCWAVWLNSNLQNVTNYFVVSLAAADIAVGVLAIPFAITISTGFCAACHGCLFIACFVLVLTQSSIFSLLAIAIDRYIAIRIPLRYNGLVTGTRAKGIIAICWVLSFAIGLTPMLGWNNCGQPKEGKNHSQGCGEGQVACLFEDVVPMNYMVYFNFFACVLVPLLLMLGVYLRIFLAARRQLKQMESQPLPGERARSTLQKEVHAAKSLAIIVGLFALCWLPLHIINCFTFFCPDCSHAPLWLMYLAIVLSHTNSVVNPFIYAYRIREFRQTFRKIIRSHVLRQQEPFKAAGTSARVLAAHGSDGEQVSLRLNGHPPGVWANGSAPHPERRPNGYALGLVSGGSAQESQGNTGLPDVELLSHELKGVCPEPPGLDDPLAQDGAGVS
Description: as §1, §2

[3] = biological target: T2, adenosine 3 receptor (Homo sapiens, UniProt P0DMS8); assay: Agonist activity against adenosine 3 receptor (CHO cells, forskolin-enhanced cAMP/SPAP reporter); conditions: CHO cells transfected with human receptor; forskolin-enhanced cAMP via SPAP; mean of all the versions tested
T2 sequence (P0DMS8 1-318): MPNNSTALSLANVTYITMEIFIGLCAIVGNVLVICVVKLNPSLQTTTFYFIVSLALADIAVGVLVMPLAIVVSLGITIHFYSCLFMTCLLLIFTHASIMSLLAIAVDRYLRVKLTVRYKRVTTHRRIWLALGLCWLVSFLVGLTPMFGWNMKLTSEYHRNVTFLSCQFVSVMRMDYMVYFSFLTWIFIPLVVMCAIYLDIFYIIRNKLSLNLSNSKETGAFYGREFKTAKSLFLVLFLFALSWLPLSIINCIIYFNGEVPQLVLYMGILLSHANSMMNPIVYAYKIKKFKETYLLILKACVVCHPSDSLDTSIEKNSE
Description: as §1, §2

Compound | A1 EC50 as a ratio of that of NECA [1] | A2a EC50 as a ratio of that of NECA [2] | A3 EC50 as a ratio of that of NECA [3]
(2R,3R,4S,5R)-2-[6-Cyclopentylamino-2-(2-pyrrolidin-1-yl-ethylamino)-purin-9-yl]-5-(2-methyl-2H-tetrazol-5-yl)-tetrahydro-furan-3,4-diol bis(Formate) [Example 112] | 472.30 | 2.19 | >315
CC(C)n1nnc([C@H]2O[C@@H](n3cnc4c(N[C@H](CO)Cc5ccccc5)nc(N[C@H]5CCNC5)nc43)[C@H](O)[C@@H]2O)n1.O=CO.O=CO [Example 64, (2R,3R,4S,5R)-2-[6-(1S-Hydroxymethyl-2-phenyl-ethylamino)-2-(pyrrolidin-3S-ylamino)-purin-9-yl]-5-(2-isopropyl-2H-tetrazol-5-yl)-tetrahydro-furan-3,4-diol bis(Formate)] | 21.30 | 2.54 | >326
CCn1nnc(C2OC(n3cnc4c(NC5CCCC5)nc(NCCN5CCCCC5)nc43)C(O)C2O)n1.O=CO.O=CO [Example 104, (2R,3R,4S,5R)-2-[6-Cyclopentylamino-2-(2-piperidin-1-yl-ethylamino)-purin-9-yl]-5-(2-ethyl-2H-tetrazol-5-yl)-tetrahydro-furan-3,4-diol bis(Formate)] | 113.40 | 4.04 | >235
CCn1nnc([C@H]2O[C@@H](n3cnc4c(NCC(c5ccccc5)c5ccccc5)nc(NCCN5CCCC5)nc43)[C@H](O)[C@@H]2O)n1.O=C(O)C(F)(F)F.O=C(O)C(F)(F)F.O=C(O)C(F)(F)F [Example 43, (2R,3R,4S,5R)-2-[6-(2,2-Diphenyl-ethylamino)-2-(2-pyrrolidin-1-yl-ethylamino)-purin-9-yl]-5-(2-ethyl-2H-tetrazol-5-yl)-tetrahydro-furan-3,4-diol tris(Trifluoroacetate)] | 71.35 | 2.23 | >546
Cn1nnc([C@H]2O[C@@H](n3cnc4c(NCC(c5ccccc5)c5ccccc5)nc(N[C@@H]5CCC[C@H]5O)nc43)[C@H](O)[C@@H]2O)n1.O=CO [Example 96, (2R,3R,4S,5R)-2-[6-(2,2-Diphenyl-ethylamino)-2-(2R-hydroxy-(R)-cyclopentylamino)-purin-9-yl]-5-(2-methyl-2H-tetrazol-5-yl)-tetrahydro-furan-3,4-diol Formate] | 5177.00 | 2.14 | >153
CCC(CC)Nc1nc(NCCN2CCOCC2)nc2c1ncn2C1OC(c2nnn(C(C)C)n2)C(O)C1O.O=CO.O=CO [Example 70, (2R,3R,4S,5R)-2-[6-(1-Ethyl-propylamino)-2-(2-morpholin-4-yl-ethylamino)-purin-9-yl]-5-(2-isopropyl-2H-tetrazol-5-yl)-tetrahydro-furan-3,4-diol Diformate] | 30.55 | 7.24 | >405
CCC(CC)Nc1nc(NCCN2CCCC2)nc2c1ncn2C1OC(c2nnn(C)n2)C(O)C1O.O=CO.O=CO [Example 90, (2R,3R,4S,5R)-2-[6-(1-Ethyl-propylamino)-2-(2-pyrrolidin-1-yl-ethylamino)-purin-9-yl]-5-(2-methyl-2H-tetrazol-5-yl)-tetrahydro-furan-3,4-diol Diformate] | 245.90 | 2.41 | >267
Cn1nnc(C2OC(n3cnc4c(NCC(c5ccccc5)c5ccccc5)nc(NCCN5CCCCC5)nc43)C(O)C2O)n1.O=CO.O=CO (stereo not drawn) [Example 26] | 241.4 | 0.86 | >329
CCC(CC)Nc1nc(NCCc2cn(C)cn2)nc2c1ncn2[C@@H]1O[C@H](c2nnn(C(C)C)n2)[C@@H](O)[C@H]1O.O=CO [Example 59, (2R,3R,4S,5R)-2-{6-(1-Ethyl-propylamino)-2-[2-(1-methyl-1H-imidazol-4-yl)-ethylamino]-purin-9-yl}-5-(2-isopropyl-2H-tetrazol-5-yl)-tetrahydro-furan-3,4-diol Formate] | 92.30 | 2.34 | >749
CC(C)n1nnc(C2OC(n3cnc4c(NC5CCCC5)nc(NCCN5CCCCC5)nc43)C(O)C2O)n1 [Example 80, (2R,3R,4S,5R)-2-[6-Cyclopentylamino-2-(2-piperidin-1-yl-ethylamino)-purin-9-yl]-yl)-5-(2-isopropyl-2H-tetrazol-5-yl)-tetrahydro-furan-3,4-diol bis(Formate)] | 77.10 | 2.37 | >164
Cn1nnc(C2OC(n3cnc4c(NC(CO)Cc5ccccc5)nc(NCCN5CCCCC5)nc43)C(O)C2O)n1 [Example 107, (2R,3R,4S,5R)-2-[6-(1S-Hydroxymethyl-2-phenyl-ethylamino)-2-(2-piperidin-1-yl-ethylamino)-purin-9-yl]-5-(2-methyl-2H-tetrazol-5-yl)-tetrahydro-furan-3,4-diol bis(Formate)] | 89.10 | 1.27 | >233
CCn1nnc([C@H]2O[C@@H](n3cnc4c(N)nc(NCCc5ccc(O)c(O)c5)nc43)[C@H](O)[C@@H]2O)n1.O=CO [Example 15, (2R,3R,4S,5R)-2-{6-Amino-2-[2-(3,4-dihydroxy-phenyl)-ethylamino]-purin-9-yl}-5-(2-ethyl-2H-tetrazol-5-yl)-tetrahydro-furan-3,4-diol Formate] | 139.5 | 0.55 | >209
CCn1nnc(C2OC(n3cnc4c(NCCc5ccccc5)nc(NCCN5CCCCC5)nc43)C(O)C2O)n1.O=CO.O=CO [Example 102, (2R,3S,4R,5R)-2-(2-Ethyl-2H-tetrazol-5-yl)-5-[6-phenethylamino-2-(2-piperidin-1-yl-ethylamino)-purin-9-yl]-tetrahydro-furan-3,4-diol Diformate] | 321.00 | 6.36 | >195
CCn1nnc([C@H]2O[C@@H](n3cnc4c(NCC(c5ccccc5)c5ccccc5)nc(NC5CCSCC5)nc43)[C@H](O)[C@@H]2O)n1.O=C(O)C(F)(F)F [Example 114] | 242.2 | 0.58 | >2972.0
Cn1cnc(CCNc2nc(NCCC(C)(C)C)c3ncn([C@@H]4O[C@H](c5nnn(C)n5)[C@@H](O)[C@H]4O)c3n2)c1.O=CO [Example 28, (2R,3R,4S,5R)-2-{6-(3,3-Dimethyl-butylamino)-2-[2-(1-methyl-1H-imidazol-4-yl)-ethylamino]-purin-9-yl}-5-(2-methyl-2H-tetrazol-5-yl)-tetrahydro-furan-3,4-diol Formate] | >=1250 | 0.36 | >151
Cn1nnc(C2OC(n3cnc4c(NCc5cccc(I)c5)nc(NC(CO)Cc5ccccc5)nc43)C(O)C2O)n1 [Example 109, (2R,3R,4S,5R)-2-[2-(1S-Hydroxymethyl-2-phenyl-ethylamino)-6-(3-iodo-benzylamino)-purin-9-yl]-5-(2-methyl-2H-tetrazol-5-yl)-tetrahydro-furan-3,4-diol Formate] | 17.70 | 8.54 | >446
CCn1nnc([C@H]2O[C@@H](n3cnc4c(N)nc(NCCc5ccc(N)cc5)nc43)[C@H](O)[C@@H]2O)n1.O=CO [Example 14, (2R,3R,4S,5R)-2-{6-Amino-2-[2-(4-amino-phenyl)-ethylamino]-purin-9-yl}-5-(2-ethyl-2H-tetrazol-5-yl)-tetrahydro-furan-3,4-diol Formate] | 181.1 | 0.55 | >209
